system: 3T3-L1 pre-adipocyte cell line; assay: Mouse 3T3-L1 pre-adipocyte cells differentiation assay (Nile Red lipid fluorescence); format: cell-based; conditions: % of adipogenesis inhibition; compound at 25 μM in differentiation medium (2 days) and insulin medium (2 days); 3T3-L1 cells
Experimental: Mouse 3T3-L1 Pre-Adipocyte Cells Differentiation Assay
Cell Culture and Treatment
Mouse (Mus musculus) 3T3-L1 pre-adipocyte cell line was purchased at ATCC.
Induction of adipocyte differentiation was performed according to Choi K C et al “The role of ghrelin and growth hormone secretagogues receptor on rat adipogenesis” Endocrinol 144: 754-759, 2003 with some modifications.
Briefly, 3T3-L1 pre-adipocytes were seeded in 24 well culture plates at a density of 3×10^4 cells/well in growth medium (DMEM containing 4.5 g/L glucose, 1 mM sodium pyruvate, 2 mM L-glutamine, 100 μg/mL streptomycin/penicilline, 25 mM HEPES and 10% calf serum (heat inactivated)). The resulting solution is used as a blank in the measure of fluorescence described below.
Cells were incubated at 37° C., 95% humidity and 10% CO2. Two days after reaching confluence (ninth day) growth medium was changed to differentiation medium (DMEM containing 4.5 g/L glucose, 2 mM L-glutamine, 100 μg/mL streptomycin/penicilline, 25 mM HEPES, 10% FBS (heat inactivated), 1 mM sodium pyruvate, 0.5 mM 3-isobutyl-1-methylxanthine, 0.25 μM dexamethasone, and 5 μg/mL insulin). After 48 h, the medium was replaced by insulin medium (DMEM containing 4.5 g/L glucose, 1 mM sodium pyruvate, 2 mM L-glutamine, 100 μg/mL streptomycin/penicillin, 25 mM HEPES, 10% FBS (inactivated) and 5 μg/mL insulin) for another 48 hours, and then incubated in 10% FBS/DMEM (same as insulin medium without insulin) for 4 days up to their complete differentiation.
The compounds to be tested were added at the 25 μM concentration to the differentiation medium (2 days) and to the insulin medium (2 days).
After incubation, the intracellular stored lipids were quantified by measuring the fluorescence after staining the lipids with the fluorescent dye Nile Red (9-diethylamino-5-benzo[α]phenoxazinone).
To carry out said lipid measurement, cells were lysed in hypotonic buffer (1 mM Tris-HCl pH=7.5) containing 2 μg/ml of Nile Red (9-diethylamino-5-benzo[t]phenoxazinone) for 15 min at 37° C.
Lysed cells were homogenized and TAG content was determined by monitoring Nile Red fluorescence in a laser spectral fluorometer. Excitation 522 nm; Emission 574 nm.
For each compound to be tested the following fluorescence measures were recorded: • FC: Fluorescence of a sample of lysed cells incubated in the presence of the compound in both the differentiation medium and in the insulin medium. • FB: Fluorescence of a blank sample of sample of pre-adipocytes in growth medium. • FNC: Fluorescence of a sample of lysed cells incubated with the differentiation medium and insulin medium not comprising any additional compound.
The inhibition of adipogenesis in the presence of the tested compounds is calculated from the following equation: % of adipogenesis inhibition=100−[100×((FC−FB)/(FNC−FB))]
% of adipogenesis inhibition (reflecting the activity against 3T3-L1 cell differentiation into adipocytes) was determined for each compound, and the effect at the […] has been chosen as the most representative value as to be shown in the structure-activity table.

Compound	Adipogenesis inhibition score
N-[(1S)-1-(1-benzyl-2-tert-butylcarbamoyl-2-oxo-ethylcarbamoyl)-3-methyl-butyl]-benzamide [Example 52]	++ (Inhibition between >15% and 30%)

same assay, conditions: Mus musculus, 48 h; % of adipogenesis inhibition; compound at 25 μM in differentiation medium (2 days) and insulin medium (2 days); 3T3-L1 cells; read-out: Adipogenesis inhibition score

Compound	inhibition at 25 µM
CCNC(=O)C(=O)C(Cc1ccccc1)NC(=O)[C@H](CC(C)C)NC(=O)c1ccccc1 (stereo partly drawn) [Example 1, N-((2S)-1-((4-(ethylamino)-3,4-dioxo-1-phenylbutan-2-yl)amino)-4-methyl-1-oxopentan-2-yl)benzamide]	15 to 30%
CCNC(=O)C(=O)C(Cc1ccccc1)NC(=O)[C@H](CC(C)C)NC(=O)c1ccccn1 (stereo partly drawn) [Example 4, N-((2S)-1-((4-(ethylamino)-3,4-dioxo-1-phenylbutan-2-yl)amino)-4-methyl-1-oxopentan-2-yl)picolinamide]	1 to 15%
CCNC(=O)C(=O)C(Cc1ccccc1)NC(=O)[C@H](CC(C)C)NC(=O)c1cncnc1 (stereo partly drawn) [Example 6, N-((2S)-1-((4-(ethylamino)-3,4-dioxo-1-phenylbutan-2-yl)amino)-4-methyl-1-oxopentan-2-yl)pyrimidine-5-carboxamide]	15 to 30%
COc1cccc(C(=O)N[C@@H](CC(C)C)C(=O)NC(Cc2ccccc2)C(=O)C(=O)NC(C)(C)C)c1 (stereo partly drawn) [Example 7, N-((2S)-1-((4-(tert-butylamino)-3,4-dioxo-1-phenylbutan-2-yl)amino)-4-methyl-1-oxopentan-2-yl)-3-methoxybenzamide]	15 to 30%
CC(C)C[C@H](NC(=O)c1cncnc1)C(=O)NC(Cc1ccccc1)C(=O)C(=O)NC(C)(C)C (stereo partly drawn) [Example 8, N-((2S)-1-((4-(tert-butylamino)-3,4-dioxo-1-phenylbutan-2-yl)amino)-4-methyl-1-oxopentan-2-yl)pyrimidine-5-carboxamide]	1 to 15%
CC(C)C[C@H](NC(=O)c1cccc2cnccc12)C(=O)NC(Cc1ccccc1)C(=O)C(=O)NC(C)(C)C (stereo partly drawn) [Example 11, N-((2S)-1-((4-(tert-butylamino)-3,4-dioxo-1-phenylbutan-2-yl)amino)-4-methyl-1-oxopentan-2-yl)isoquinoline-5-carboxamide]	30 to 80%
CC(C)C[C@H](NC(=O)c1cnccn1)C(=O)NC(Cc1ccccc1)C(=O)C(=O)NC(C)(C)C (stereo partly drawn) [Example 15, N-((2S)-1-((4-(tert-butylamino)-3,4-dioxo-1-phenylbutan-2-yl)amino)-4-methyl-1-oxopentan-2-yl)pyrazine-2-carboxamide]	1 to 15%
CC(C)C[C@H](NC(=O)c1ccccc1)C(=O)NC(Cc1ccccc1)C(=O)C(=O)NC(C)(C)C (stereo partly drawn) [Example 18, N-((2S)-1-((4-(tert-butylamino)-3,4-dioxo-1-phenylbutan-2-yl)amino)-4-methyl-1-oxopentan-2-yl)benzamide]	15 to 30%
CC(C)C[C@H](NC(=O)c1ccccc1)C(=O)NC(Cc1ccccc1)C(=O)C(=O)NC1CC1 (stereo partly drawn) [Example 20, N-((2S)-1-((4-(cyclopropylamino)-3,4-dioxo-1-phenylbutan-2-yl)amino)-4-methyl-1-oxopentan-2-yl)benzamide]	30 to 80%
CC(C)C[C@H](NC(=O)c1cccnc1)C(=O)NC(Cc1ccccc1)C(=O)C(=O)NC(C)(C)C (stereo partly drawn) [Example 21, N-((2S)-1-((4-(tert-butylamino)-3,4-dioxo-1-phenylbutan-2-yl)amino)-4-methyl-1-oxopentan-2-yl)nicotinamide]	1 to 15%
Cc1ccc(C(=O)N[C@@H](CC(C)C)C(=O)NC(Cc2ccccc2)C(=O)C(=O)NC(C)(C)C)cn1 (stereo partly drawn) [Example 25, N-((2S)-1-((4-(tert-butylamino)-3,4-dioxo-1-phenylbutan-2-yl)amino)-4-methyl-1-oxopentan-2-yl)-6-methylnicotinamide]	30 to 80%
CC(C)C[C@H](NC(=O)c1cncc(F)c1)C(=O)NC(Cc1ccccc1)C(=O)C(=O)NC(C)(C)C (stereo partly drawn) [Example 31, N-((2S)-1-(4-(tert-butylamino)-3,4-dioxo-1-phenylbutan-2-ylamino)-4-methyl-1-oxopentan-2-yl)-5-fluoronicotinamide]	1 to 15%
CC(C)C[C@H](NC(=O)c1ccc(C(F)(F)F)nc1)C(=O)NC(Cc1ccccc1)C(=O)C(=O)NC(C)(C)C (stereo partly drawn) [Example 32, N-((2S)-1-(4-(tert-butylamino)-3,4-dioxo-1-phenylbutan-2-ylamino)-4-methyl-1-oxopentan-2-yl)-6-(trifluoromethyl)nicotinamide]	30 to 80%
CC(C)C[C@H](NC(=O)c1cnc2ccccc2c1)C(=O)NC(Cc1ccccc1)C(=O)C(=O)NC(C)(C)C (stereo partly drawn) [Example 54, Quinoline-3-carboxylic acid [(1S)-1-(1-benzyl-2-tert-butylcarbamoyl-2-oxo-ethylcarbamoyl)-3-methyl-butyl]-amide]	30 to 80%
CC(C)C[C@H](NC(=O)c1cccnn1)C(=O)NC(Cc1ccccc1)C(=O)C(=O)NC(C)(C)C (stereo partly drawn) [Example 55, Pyridazine-3-carboxylic acid [(1S)-1-(1-benzyl-2-tert-butylcarbamoyl-2-oxo-ethylcarbamoyl)-3-methyl-butyl]-amide]	15 to 30%
Cc1ccccc1C(=O)N[C@@H](CC(C)C)C(=O)NC(Cc1ccccc1)C(=O)C(=O)NC(C)(C)C (stereo partly drawn) [Example 56, N-[(1S)-1-(1-benzyl-2-tert-butylcarbamoyl-2-oxo-ethylcarbamoyl)-3-methyl-butyl]-2-methyl-benzamide]	15 to 30%
CC(C)C[C@H](NC(=O)C1CCOCC1)C(=O)NC(Cc1ccccc1)C(=O)C(=O)NC(C)(C)C (stereo partly drawn) [Example 57, Tetrahydro-pyran-4-carboxylic acid [(1S)-1-(1-benzyl-2-tert-butylcarbamoyl-2-oxo-ethylcarbamoyl)-3-methyl-butyl]-amide]	15 to 30%
CC(C)C[C@H](NC(=O)c1ccccc1)C(=O)NC(Cc1ccccc1)C(=O)C(=O)NC1CCCCC1 (stereo partly drawn) [Example 58, N-[(1S)-1-(1-benzyl-2-cyclohexylcarbamoyl-2-oxo-ethylcarbamoyl)-3-methyl-butyl]-benzamide]	30 to 80%
CC(C)C[C@H](NC(=O)c1ccccc1)C(=O)NC(Cc1ccccc1)C(=O)C(=O)NCc1ccccc1 (stereo partly drawn) [Example 59, N-[(1S)-1-(1-benzyl-2-benzylcarbamoyl-2-oxo-ethylcarbamoyl)-3-methyl-butyl]-benzamide]	30 to 80%
CC(C)C[C@H](NC(=O)c1cnccc1Cl)C(=O)NC(Cc1ccccc1)C(=O)C(=O)NC(C)(C)C (stereo partly drawn) [Example 60, N-[(1S)-1-(1-benzyl-2-tert-butylcarbamoyl-2-oxo-ethylcarbamoyl)-3-methyl-butyl]-4-chloro-nicotinamide]	30 to 80%
CONC(=O)C(=O)C(Cc1ccccc1)NC(=O)[C@H](CC(C)C)NC(=O)c1cccc(OC)c1 (stereo partly drawn) [Example 61, N-[(1S)-1-(1-benzyl-2-methoxycarbamoyl-2-oxo-ethylcarbamoyl)-3-methyl-butyl]-3-methoxy-benzamide]	30 to 80%
CONC(=O)C(=O)C(Cc1ccccc1)NC(=O)[C@H](CC(C)C)NC(=O)c1ccc2c(c1)OCO2 (stereo partly drawn) [Example 62, Benzo[1,3]dioxole-5-carboxylic acid [(1S)-1-(1-benzyl-2-methoxycarbamoyl-2-oxo-ethylcarbamoyl)-3-methyl-butyl]-amide]	30 to 80%
CCNC(=O)C(=O)C(Cc1ccccc1)NC(=O)[C@H](CC(C)C)NC(=O)OC(C)(C)C (stereo partly drawn) [Example 64, tert-butyl (2S)-1-(4-(ethylamino)-3,4-dioxo-1-phenylbutan-2-ylamino)-4-methyl-1-oxopentan-2-ylcarbamate]	30 to 80%
CCNC(=O)C(=O)C(Cc1ccccc1)NC(=O)[C@H](CC(C)C)NC(=O)NC(C)(C)C (stereo partly drawn) [Example 65, (2S)-2-(3-tert-butylureido)-N-(4-(ethylamino)-3,4-dioxo-1-phenylbutan-2-yl)-4-methylpentanamide]	15 to 30%
COCCOC(=O)N[C@@H](CC(C)C)C(=O)NC(Cc1ccccc1)C(=O)C(=O)NOC (stereo partly drawn) [Example 67, [(1S)-1-(1-benzyl-2-methoxycarbamoyl-2-oxo-ethylcarbamoyl)-3-methyl-butyl]-carbamic acid 2-methoxy-ethyl ester]	15 to 30%
